Experiment [1] deals with EGFR (human) (UniProt P00533). The note with it: mda-mb-231.
Experiment [2] deals with EGFR (human) (UniProt P00533). The note with it: mda-mb-361.
Experiment [3] has as its target EGFR (human) (UniProt P00533). The note with it: mda-mb-231. The source holds these as a separate data set.
For experiment [4], the target named is EGFR (human) (UniProt P00533). The note with it: mda-mb-231. This is another data set of the same source.

Molecules are shown by their SMILES. Some results are limits rather than exact numbers.

The term IC50 denotes the midpoint of a concentration-inhibition curve. Higher therefore signals lower potency.

Sequence of EGFR (human) (P00533 whole entry, looked up): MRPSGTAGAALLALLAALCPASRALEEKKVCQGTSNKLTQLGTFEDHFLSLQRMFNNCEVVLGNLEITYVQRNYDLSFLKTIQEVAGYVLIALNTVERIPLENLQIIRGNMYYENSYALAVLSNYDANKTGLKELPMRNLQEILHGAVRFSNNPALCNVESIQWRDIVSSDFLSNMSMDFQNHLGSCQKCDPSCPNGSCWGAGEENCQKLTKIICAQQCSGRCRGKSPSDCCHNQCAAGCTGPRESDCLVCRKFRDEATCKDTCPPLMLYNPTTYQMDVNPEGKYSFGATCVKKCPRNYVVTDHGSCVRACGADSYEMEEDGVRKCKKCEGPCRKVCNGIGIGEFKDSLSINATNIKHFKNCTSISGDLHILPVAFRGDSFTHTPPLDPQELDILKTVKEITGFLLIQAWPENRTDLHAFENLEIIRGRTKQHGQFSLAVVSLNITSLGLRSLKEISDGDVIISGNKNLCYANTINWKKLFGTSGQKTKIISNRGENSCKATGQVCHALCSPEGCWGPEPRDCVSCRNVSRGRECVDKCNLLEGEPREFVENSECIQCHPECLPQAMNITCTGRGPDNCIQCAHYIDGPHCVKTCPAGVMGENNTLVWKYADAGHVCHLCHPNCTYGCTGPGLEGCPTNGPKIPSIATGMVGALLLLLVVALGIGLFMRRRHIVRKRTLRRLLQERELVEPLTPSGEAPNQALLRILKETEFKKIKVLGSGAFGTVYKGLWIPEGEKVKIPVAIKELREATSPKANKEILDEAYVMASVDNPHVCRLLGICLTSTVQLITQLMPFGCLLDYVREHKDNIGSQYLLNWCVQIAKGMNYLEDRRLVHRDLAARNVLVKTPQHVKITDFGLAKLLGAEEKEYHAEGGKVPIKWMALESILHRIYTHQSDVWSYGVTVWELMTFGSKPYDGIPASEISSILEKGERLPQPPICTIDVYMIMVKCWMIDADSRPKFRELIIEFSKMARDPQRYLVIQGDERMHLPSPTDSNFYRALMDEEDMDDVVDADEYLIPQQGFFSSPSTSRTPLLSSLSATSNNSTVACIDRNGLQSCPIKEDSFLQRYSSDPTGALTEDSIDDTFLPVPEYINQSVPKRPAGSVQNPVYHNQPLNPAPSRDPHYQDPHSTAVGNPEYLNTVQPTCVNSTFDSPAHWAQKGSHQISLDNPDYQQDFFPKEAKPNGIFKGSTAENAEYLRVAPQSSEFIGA

As for `C/C(O)=C(\C#N)C(=O)Nc1cccc(Br)c1`, the IC50 on EGFR (human) [1] was over 100 µM; on EGFR (human) [2] it was over 300 µM; at EGFR (human) [3], over 300 µM.

With `C/C(O)=C(\C#N)C(=O)Nc1cccc(Cl)c1`, the values for the IC50 against EGFR (human) [1], against EGFR (human) [2] and against EGFR (human) [3] were over 100 µM, over 300 µM and over 300 µM, respectively.

As to `C/C(O)=C(\C#N)C(=O)Nc1ccccc1F`, the IC50 on EGFR (human) [1] was 74.5 µM; on EGFR (human) [2], over 300 µM; against EGFR (human) [3] it was over 300 µM.

On to `C/C(O)=C(\C#N)C(=O)Nc1cc(Br)ccc1Br`, for which the IC50 is over 100 µM against EGFR (human) [1], over 300 µM against EGFR (human) [2] and over 300 µM against EGFR (human) [3].

For `C/C(O)=C(\C#N)C(=O)Nc1ccc(F)cc1`, the IC50 at EGFR (human) [1] is over 100 µM; against EGFR (human) [2], over 300 µM; against EGFR (human) [3], over 300 µM.

Turning to `C/C(O)=C(\C#N)C(=O)Nc1ccc(C(F)(F)F)cc1`, the IC50 against EGFR (human) [1] was 5.4 µM; against EGFR (human) [2], 190 µM; against EGFR (human) [4], 97 µM; against EGFR (human) [3], 199 µM.

For `C/C(O)=C(\C#N)C(=O)Nc1ccccc1`, the results for the IC50 at EGFR (human) [1], on EGFR (human) [2] and against EGFR (human) [3] were over 100 µM, over 300 µM and over 300 µM, respectively.

In the case of `C/C(O)=C(\C#N)C(=O)Nc1ccc(Cl)cc1`, the results for the IC50 on EGFR (human) [1], against EGFR (human) [2] and against EGFR (human) [3] were over 100 µM, over 300 µM and over 300 µM, respectively.

Turning to `C/C(O)=C(\C#N)C(=O)Nc1cccc(C(F)(F)F)c1`, the IC50 at EGFR (human) [1] was over 100 µM; on EGFR (human) [2] it was over 300 µM; on EGFR (human) [3], over 300 µM.

With `C/C(O)=C(\C#N)C(=O)Nc1ccccc1Br`, the values for the IC50 at EGFR (human) [1], against EGFR (human) [2] and against EGFR (human) [3] were over 100 µM, over 300 µM and over 300 µM, respectively.

For the compound `C/C(O)=C(\C#N)C(=O)Nc1ccc(OC(F)(F)F)cc1`, the IC50 against EGFR (human) [2] was determined as 26.3 µM; on EGFR (human) [4], 28.4 µM; against EGFR (human) [3] it was 53.4 µM.

With `C/C(O)=C(\C#N)C(=O)Nc1ccccc1Cl`, the values for the IC50 at EGFR (human) [1], on EGFR (human) [2] and at EGFR (human) [3] were over 100 µM, over 300 µM and over 300 µM, respectively.

For the compound `C/C(O)=C(\C#N)C(=O)Nc1ccccc1C(F)(F)F`, the IC50 is over 100 µM on EGFR (human) [1], over 300 µM against EGFR (human) [2] and over 300 µM at EGFR (human) [3].

For `C/C(O)=C(\C#N)C(=O)Nc1cccc(F)c1`, the values for the IC50 at EGFR (human) [1], against EGFR (human) [2] and at EGFR (human) [3] were over 100 µM, over 300 µM and over 300 µM, respectively.

In the case of `C/C(O)=C(\C#N)C(=O)Nc1ccc(Br)cc1`, the results for the IC50 on EGFR (human) [1], against EGFR (human) [2] and against EGFR (human) [3] were over 100 µM, over 300 µM and over 300 µM, respectively.
